Assays:
[1] = test system: carrageenin induced oedema in rat paws; assay: carrageenin induced oedema in rat paws; format: in vivo; settings: dosed orally at 100 mg/kg
Source text: A specific known indazolone of formula I which is of particular interest as an inhibitor of 5-LO is, for example, 1,2-dihydro-2-benzylindazol-3-one.

[2] = test system: carrageenin induced oedema in rat paws; settings: J. Heterocyclic Chemistry, 1970, 7, 815-820; cited from earlier work
[3] = target: T1, 5-LO isolated from guinea pig neutrophils (Cavia porcellus, UniProt A0A286X958); assay: Test (a): in vitro spectrophotometric enzyme assay, cell free system, 5-LO isolated from guinea pig neutrophils; format: biochemical
T1 construct: 5-LO isolated from guinea pig neutrophils; from tissue; host or cells: guinea pig neutrophils
T1 sequence (A0A286X958 1-674): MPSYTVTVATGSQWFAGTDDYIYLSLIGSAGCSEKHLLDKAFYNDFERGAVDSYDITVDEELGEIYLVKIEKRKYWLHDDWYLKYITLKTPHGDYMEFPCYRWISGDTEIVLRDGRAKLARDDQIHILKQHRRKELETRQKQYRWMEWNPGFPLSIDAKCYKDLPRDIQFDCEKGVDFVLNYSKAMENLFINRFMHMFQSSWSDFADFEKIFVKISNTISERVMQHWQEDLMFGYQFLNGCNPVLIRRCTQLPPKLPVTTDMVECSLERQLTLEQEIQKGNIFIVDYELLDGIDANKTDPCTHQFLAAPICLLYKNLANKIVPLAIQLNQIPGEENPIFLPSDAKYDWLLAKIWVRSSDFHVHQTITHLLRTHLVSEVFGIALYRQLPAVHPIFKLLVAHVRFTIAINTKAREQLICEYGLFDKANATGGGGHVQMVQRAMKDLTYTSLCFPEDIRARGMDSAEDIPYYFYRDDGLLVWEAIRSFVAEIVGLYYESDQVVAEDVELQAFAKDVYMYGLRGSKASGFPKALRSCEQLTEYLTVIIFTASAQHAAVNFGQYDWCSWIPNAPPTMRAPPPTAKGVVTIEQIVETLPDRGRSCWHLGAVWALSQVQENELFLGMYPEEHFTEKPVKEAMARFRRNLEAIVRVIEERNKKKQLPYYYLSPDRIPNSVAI
Source text: a) An in vitro spectrophotometric enzyme assay system, which assesses the inhibitory properties of a test compound in a cell free system using 5-LO isolated from guinea pig neutrophils and as described by D. Aharony and R. L. Stein (J. Biol. Chem., 1986, 261(25), 11512-11519). This test provides a measure of the intrinsic inhibitory properties against soluble 5-LO in an extracellular environment.

5-LO [4] = target: T2, 5-LO (Rattus norvegicus, UniProt P12527); assay: Test (b): in vitro heparinised rat blood, A23187 challenge, LTB4 radioimmunoassay (5-LO); format: cell-based
T2 construct: challenge with A23187 and radioimmunoassay of LTB4 and PGE2; endogenous in cells; host or cells: blood collected after oral dosing, heparinised
T2 sequence (P12527 1-673): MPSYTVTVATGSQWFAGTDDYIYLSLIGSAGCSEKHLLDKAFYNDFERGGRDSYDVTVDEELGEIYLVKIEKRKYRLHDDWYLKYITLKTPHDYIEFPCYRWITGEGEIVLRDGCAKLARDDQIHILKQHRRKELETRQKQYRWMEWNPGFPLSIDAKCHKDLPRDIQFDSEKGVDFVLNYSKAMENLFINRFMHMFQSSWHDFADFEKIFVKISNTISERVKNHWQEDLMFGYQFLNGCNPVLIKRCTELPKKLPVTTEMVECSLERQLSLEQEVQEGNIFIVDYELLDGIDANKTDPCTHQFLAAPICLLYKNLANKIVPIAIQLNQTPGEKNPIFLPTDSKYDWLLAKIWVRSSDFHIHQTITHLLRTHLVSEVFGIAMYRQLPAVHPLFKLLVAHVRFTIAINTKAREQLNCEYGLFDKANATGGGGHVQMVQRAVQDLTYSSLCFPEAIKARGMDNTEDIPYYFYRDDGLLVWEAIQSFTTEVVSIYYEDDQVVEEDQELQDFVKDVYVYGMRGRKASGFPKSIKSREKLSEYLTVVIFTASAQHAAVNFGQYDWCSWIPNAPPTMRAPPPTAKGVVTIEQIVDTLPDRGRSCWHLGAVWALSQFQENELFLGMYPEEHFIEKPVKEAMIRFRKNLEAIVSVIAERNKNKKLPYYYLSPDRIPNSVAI
Experimental: (§1) b) An in vitro assay system involving incubating a test compound with heparinised rat blood, prior to challenge with the calcium ionophore A23187 and then indirectly measuring the inhibitory effects on 5-LO by assaying the amount of LTB4 using the specific radioimmunoassay described by Carey and Forder (F. Carey and R. A. Forder, Brit. J. Pharmacol. 1985, 84, 34P) which involves the use of a protein-LTB4 conjugate produced using the procedure of Young et alia (Prostaglandins, 1983, 26(4), 605-613). The effects of a test compound on the enzyme cyclooxygenase (which is involved in the alternative metabolic pathway for arachidonic acid and gives rise to prostaglandins, thromboxanes and related metabolites) may be measured at the same time using the specific radioimmunoassay for prostaglandin E2 (PGE2) described by Carey and Forder (see above). This test provides an indication of the effects of a test compound against 5-LO and also cyclooxygenase in the presence of blood cells and proteins. It permits the selectivity of the inhibitory effect on 5-LO or cyclooxygenase to be assessed.

cyclooxygenase [5] = target: T3, cyclooxygenase (Rattus norvegicus, UniProt Q63921); assay: Test (b): in vitro heparinised rat blood, A23187 challenge, PGE2 radioimmunoassay (cyclooxygenase); format: cell-based
T3 construct: incubating a test compound with heparinised rat blood; endogenous in cells; host or cells: heparinised rat blood (platelets and leukocytes)
T3 sequence (Q63921 27-602): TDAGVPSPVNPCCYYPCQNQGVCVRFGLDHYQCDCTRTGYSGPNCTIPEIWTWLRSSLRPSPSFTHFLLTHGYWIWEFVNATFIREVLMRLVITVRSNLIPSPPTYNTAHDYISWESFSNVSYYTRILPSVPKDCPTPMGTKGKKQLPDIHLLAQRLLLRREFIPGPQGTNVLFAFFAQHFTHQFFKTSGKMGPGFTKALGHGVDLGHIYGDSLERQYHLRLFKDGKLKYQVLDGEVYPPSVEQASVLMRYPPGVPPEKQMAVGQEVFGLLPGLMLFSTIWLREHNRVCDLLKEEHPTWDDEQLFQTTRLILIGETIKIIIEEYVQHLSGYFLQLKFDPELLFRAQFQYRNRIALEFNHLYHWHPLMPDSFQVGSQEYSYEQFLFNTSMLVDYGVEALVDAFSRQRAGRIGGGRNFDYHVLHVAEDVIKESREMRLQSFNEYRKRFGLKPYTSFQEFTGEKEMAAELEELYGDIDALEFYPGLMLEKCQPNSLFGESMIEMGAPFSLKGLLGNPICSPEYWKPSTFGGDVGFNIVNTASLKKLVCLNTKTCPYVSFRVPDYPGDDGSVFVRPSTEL
Experimental: as §1

5-LO [6] = target: T2, 5-LO; assay: Test (c): ex vivo assay, oral dosing, blood A23187 challenge, LTB4 radioimmunoassay; format: in vivo
Experimental: as §1
(§2) c) An ex vivo assay system, which is a variation of test (b) above, involving administration of a test compound (usually orally as a suspension in carboxymethylcellulose)blood collection, heparinisation, challenge with A23187 and radioimmunoassay of LTB4 and PGE2. […]

cyclooxygenase [7] = target: T3, cyclooxygenase; assay: Test (c): ex vivo assay, oral dosing, blood A23187 challenge, PGE2 radioimmunoassay; format: in vivo
Experimental: as §1, §2

| SMILES | significant effects in carrageenin induced oedema in rat paws [1] | anti-inflammatory properties in carrageenin induced oedema in rat paws [2] | IC50 [3] [µM] | IC50 (5-LO [4]) [µM] | IC50 (cyclooxygenase [5]) [µM] | ED50 (5-LO [6]) [mg/kg] | ED50 (cyclooxygenase [7]) [mg/kg] |
| --- | --- | --- | --- | --- | --- | --- | --- |
| O=c1c2ccccc2[nH]n1Cc1ccccc1 [1,2-dihydro-2-benzylindazol-3-one] | unable to detect any significant effects | weak anti-inflammatory properties |  |  |  |  |  |
| O=c1c2ccccc2[nH]n1Cc1cccc2ccccc12 [Example 1, 1,2-dihydro-2-(1-naphthylmethyl)-3H-indazol-3-one] |  |  | 1.7 | 0.8 | 100 | 30 |  |
| O=c1c2ccccc2[nH]n1Cc1cccnc1 [Example 24] |  |  |  | < 5 | > 100 | < 10 | > 100 |
